According to article PMC8776995 (Frontiers in Chemistry, 2022):
“And” between values parts separate entries of the source, which are not always exact repeats. Identical values can stand only once. One block for each compound: values may come before it.

Key:
[1] = target: wild-type EGFR (Homo sapiens, UniProt P00533); test: EGFR kinase assay (ELISA); conditions: for IC50: IC50 (μM) EGFR, ELISA, 3 μmol/L ATP; for A450: raw ELISA absorbance
[2] = tested on: A549 cells; test: CCK-8 antiproliferation assay, A549; conditions: for Inhibitory efficacy: A549 cells; for IC50: A549, 48 h, read-out: IC50 (μM) A549, CCK-8, 48 h, average ± SD of three independent experiments
[3] = tested on: H460 cells; test: CCK-8 antiproliferation assay, H460; conditions: for Inhibitory efficacy: H460 cells; for IC50: NCI-H460, 48 h, read-out: IC50 (μM) H460, CCK-8, 48 h, average ± SD of three independent experiments
[4] = tested on: H1975 cells; test: CCK-8 antiproliferation assay, H1975; conditions: for Inhibitory efficacy: H1975 cells; for IC50: NCI-H1975, 48 h, read-out: IC50 (μM) H1975, CCK-8, 48 h, average ± SD of three independent experiments
[5] = tested on: PC-9 cells; test: CCK-8 antiproliferation assay, PC-9; conditions: Homo sapiens, PC-9, 48 h, read-out: IC50 (μM) PC-9
Procedure: The compounds were dissolved in DMSO to make a 20 μM stock solution and diluted to the concentration of working solutions with complete growth medium before administration.
Cells were seeded in 96-well plates: 3,000–5,000 cells/well in 100 ul. One day after seeding, the test compounds at concentration between 1.0 and 16.0 μ M or 0.1% DMSO (as control) were added to cells in triplicate. 48 h later, CCK-8 was added and incubated the plate for 1–4 h in the incubator. The absorbance at 450 nm were measured using a microplate reader (Bio-Tek).

[6] = concentration 0.03 nM, one value per replicate column
[7] = concentration 0.03 nM, one value per replicate column, 3e-05 µM
[8] = concentration 0.3 nM, one value per replicate column
[9] = concentration 0.3 nM, one value per replicate column, 0.0003 µM
[10] = concentration 3 nM, one value per replicate column
[11] = concentration 3 nM, one value per replicate column, 0.003 µM
[12] = concentration 30 nM, one value per replicate column
[13] = concentration 30 nM, one value per replicate column, 0.03 µM
[14] = concentration 300 nM, one value per replicate column
[15] = concentration 300 nM, one value per replicate column, 0.3 µM
[16] = concentration 3000 nM, one value per replicate column
[17] = concentration 3000 nM, one value per replicate column, 3 µM
[18] = concentration 30000 nM, one value per replicate column
[19] = concentration 30000 nM, one value per replicate column, 30 µM
[20] = 1uM, given as fraction, Repeat 1-3
[21] = 2uM, given as fraction, Repeat 1-3
[22] = 4uM, given as fraction, Repeat 1-3
[23] = 8uM, given as fraction, Repeat 1-3
[24] = 16uM, given as fraction, Repeat 1-3
[25] = Homo sapiens, A549, read-out: Inhibitory efficacy, A549 cells, 2uM, given as fraction, Repeat 1-3
[26] = Homo sapiens, A549, read-out: Inhibitory efficacy, A549 cells, 4uM, given as fraction, Repeat 1-3
[27] = Homo sapiens, A549, read-out: Inhibitory efficacy, A549 cells, 8uM, given as fraction, Repeat 1-3
[28] = Homo sapiens, A549, read-out: Inhibitory efficacy, A549 cells, 16uM, given as fraction, Repeat 1-3
[29] = Homo sapiens, NCI-H460, read-out: Inhibitory efficacy, H460 cells, 4uM, given as fraction, Repeat 1-3
[30] = Homo sapiens, NCI-H1975, read-out: Inhibitory efficacy, H1975 cells, 16uM, given as fraction, Repeat 1-3

Chain of wild-type EGFR (P00533 25-1210): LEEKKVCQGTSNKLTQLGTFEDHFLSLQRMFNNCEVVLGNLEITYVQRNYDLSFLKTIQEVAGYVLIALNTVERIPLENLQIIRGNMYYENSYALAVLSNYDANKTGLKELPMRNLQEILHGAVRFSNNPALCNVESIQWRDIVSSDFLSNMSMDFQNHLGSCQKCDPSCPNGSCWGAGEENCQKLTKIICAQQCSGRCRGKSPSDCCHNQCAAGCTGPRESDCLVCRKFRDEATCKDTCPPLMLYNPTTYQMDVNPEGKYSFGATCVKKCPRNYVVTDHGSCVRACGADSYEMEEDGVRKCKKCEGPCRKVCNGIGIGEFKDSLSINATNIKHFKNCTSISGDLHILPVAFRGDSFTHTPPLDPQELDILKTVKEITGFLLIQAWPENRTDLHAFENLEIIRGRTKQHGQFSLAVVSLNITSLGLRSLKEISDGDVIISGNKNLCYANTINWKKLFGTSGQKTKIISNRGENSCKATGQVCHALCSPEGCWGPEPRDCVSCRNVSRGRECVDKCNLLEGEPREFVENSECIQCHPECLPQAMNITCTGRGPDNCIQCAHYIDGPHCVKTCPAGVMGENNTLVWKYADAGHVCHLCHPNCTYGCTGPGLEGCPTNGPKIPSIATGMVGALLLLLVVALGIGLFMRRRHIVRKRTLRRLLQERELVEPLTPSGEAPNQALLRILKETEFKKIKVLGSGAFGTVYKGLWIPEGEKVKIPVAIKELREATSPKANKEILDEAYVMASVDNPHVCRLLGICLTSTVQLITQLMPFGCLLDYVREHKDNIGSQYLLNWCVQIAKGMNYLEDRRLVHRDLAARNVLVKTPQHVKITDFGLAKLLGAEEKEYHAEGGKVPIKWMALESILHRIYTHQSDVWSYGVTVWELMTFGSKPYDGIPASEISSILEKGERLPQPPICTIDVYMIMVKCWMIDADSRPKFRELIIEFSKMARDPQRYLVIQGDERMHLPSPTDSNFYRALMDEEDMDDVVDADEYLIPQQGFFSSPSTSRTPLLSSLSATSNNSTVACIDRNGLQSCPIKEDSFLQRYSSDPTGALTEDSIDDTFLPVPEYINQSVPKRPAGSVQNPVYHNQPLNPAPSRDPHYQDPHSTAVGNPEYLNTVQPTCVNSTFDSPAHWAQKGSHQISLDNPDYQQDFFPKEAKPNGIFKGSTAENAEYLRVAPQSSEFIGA

IC50 [1]: 15.5 µM
inhibition at 30 pM [1, 6]: 13.7%
Inhibition [1, 7]: 9.36
inhibition at 0.0003 µM [1, 8]: 14.2%
Inhibition [1, 9]: 12.4795
inhibition at 0.003 µM [1, 10]: 14.4%
Inhibition [1, 11]: 19.0476
inhibition at 0.03 µM [1, 12]: 18.2%
Inhibition [1, 13]: 26.7652
inhibition at 0.3 µM [1, 14]: 32.9%
Inhibition [1, 15]: 32.1839
inhibition at 3 µM [1, 16]: 34.7%
Inhibition [1, 17]: 34.8112
inhibition at 30 µM [1, 18]: 60.1%
Inhibition [1, 19]: 58.1281
A450 ([1]; concentration 0.0001 nM): 0.831 and 0.824
A450 ([1]; concentration 0.03 nM): 0.745 and 0.767
A450 ([1]; concentration 0.3 nM): 0.742 and 0.748
A450 ([1]; concentration 3 nM): 0.741 and 0.708
A450 ([1]; concentration 30 nM): 0.717 and 0.661
A450 ([1]; concentration 300 nM): 0.625 and 0.628
A450 ([1]; concentration 3000 nM): 0.614 and 0.612
A450 ([1]; concentration 30000 nM): 0.455 and 0.47
IC50 ([2]; Homo sapiens): 4.86 ± 0.6 µM
IC50 ([3]; Homo sapiens): 3.18 ± 0.11 µM
IC50 ([4]; Homo sapiens): 18.3 ± 4.45 µM
IC50 [5]: > 100 µM
melting point: 85 to 88 °C
SMILES: COCCOc1cc2ncnc(Nc3cccc(-c4cn(-c5ccc(OC)cc5OC)nn4)c3)c2cc1OCCOC [e17, [6,7-Bis-(2-methoxy-ethoxy)-quinazolin-4-yl]-{3-[1-(2,4-dimethoxy-phenyl)-1H-[1,2,3]triazol-4-yl]-phenyl}-amine]
Inhibitory efficacy [2, 20]: 0.282 and 0.1573
Inhibitory efficacy [2, 21]: 0.4285 and 0.3755
Inhibitory efficacy [2, 22]: 0.5452 and 0.5691
Inhibitory efficacy [2, 23]: 0.5949 and 0.5372
Inhibitory efficacy [2, 24]: 0.5916 and 0.6049
inhibition at 1 µM ([2]; Homo sapiens, A549, read-out: Inhibitory efficacy, A549 cells, 1uM, given as fraction, Repeat 1-3): 15.3%
inhibition at 2 µM [2, 25]: 40.1%
inhibition at 4 µM [2, 26]: 55.6%
inhibition at 8 µM [2, 27]: 58.9%
inhibition at 16 µM [2, 28]: 65%
Inhibitory efficacy [3, 21]: 0.3561 and 0.3949
Inhibitory efficacy [3, 22]: 0.5495 and 0.6263
Inhibitory efficacy [3, 23]: 0.7733 and 0.7776
Inhibitory efficacy [3, 24]: 0.8649 and 0.8113
inhibition at 2 µM ([3]; Homo sapiens, NCI-H460, read-out: Inhibitory efficacy, H460 cells, 2uM, given as fraction, Repeat 1-3): 29.5%
inhibition at 4 µM [3, 29]: 60.9%
inhibition at 8 µM ([3]; Homo sapiens, NCI-H460, read-out: Inhibitory efficacy, H460 cells, 8uM, given as fraction, Repeat 1-3): 77.7%
inhibition at 16 µM ([3]; Homo sapiens, NCI-H460, read-out: Inhibitory efficacy, H460 cells, 16uM, given as fraction, Repeat 1-3): 81.3%
Inhibitory efficacy [4, 20]: 0.195 and 0.1523
Inhibitory efficacy [4, 21]: 0.402 and 0.2557
Inhibitory efficacy [4, 22]: 0.3137 and 0.2571
Inhibitory efficacy [4, 23]: 0.5 and 0.471
Inhibitory efficacy [4, 24]: 0.4476 and 0.4006
inhibition at 1 µM ([4]; Homo sapiens, NCI-H1975, read-out: Inhibitory efficacy, H1975 cells, 1uM, given as fraction, Repeat 1-3): 23.1%
inhibition at 2 µM ([4]; Homo sapiens, NCI-H1975, read-out: Inhibitory efficacy, H1975 cells, 2uM, given as fraction, Repeat 1-3): 33.3%
inhibition at 4 µM ([4]; Homo sapiens, NCI-H1975, read-out: Inhibitory efficacy, H1975 cells, 4uM, given as fraction, Repeat 1-3): 29%
inhibition at 8 µM ([4]; Homo sapiens, NCI-H1975, read-out: Inhibitory efficacy, H1975 cells, 8uM, given as fraction, Repeat 1-3): 52.8%
inhibition at 16 µM [4, 30]: 47.1%

IC50 [1]: 0.28 µM
inhibition at 100 fM ([1]; concentration 0.0001 nM (reference for normalisation), one value per replicate column): 0%
inhibition at 30 pM [1, 6]: 3.3%
Inhibition [1, 7]: 3.99
inhibition at 0.0003 µM [1, 8]: 21.7%
Inhibition [1, 9]: 27.0358
inhibition at 0.003 µM [1, 10]: 38.5%
Inhibition [1, 11]: 33.7948
inhibition at 0.03 µM [1, 12]: 40.5%
Inhibition [1, 13]: 35.1792
inhibition at 0.3 µM [1, 14]: 42.1%
Inhibition [1, 15]: 40.798
inhibition at 3 µM [1, 16]: 55.8%
Inhibition [1, 17]: 51.9544
inhibition at 30 µM [1, 18]: 88.6%
Inhibition [1, 19]: 85.4235
A450 ([1]; concentration 0.0001 nM): 1.605 and 1.533
A450 ([1]; concentration 0.03 nM): 1.562 and 1.484
A450 ([1]; concentration 0.3 nM): 1.323 and 1.201
A450 ([1]; concentration 3 nM): 1.104 and 1.118
A450 ([1]; concentration 30 nM): 1.078 and 1.101
A450 ([1]; concentration 300 nM): 1.057 and 1.032
A450 ([1]; concentration 3000 nM): 0.879 and 0.895
A450 ([1]; concentration 30000 nM): 0.452 and 0.484
IC50 ([2]; Homo sapiens): > 100 µM
IC50 ([3]; Homo sapiens): > 100 µM
IC50 ([4]; Homo sapiens): > 100 µM
IC50 [5]: > 100 µM
melting point: 109 to 112 °C
SMILES: COCCOc1cc2ncnc(Nc3cccc(-c4cn(CCc5ccccc5)nn4)c3)c2cc1OCCOC [e20, [6,7-Bis-(2-methoxy-ethoxy)-quinazolin-4-yl]-[3-(1-phenethyl-1H-[1,2,3]triazol-4-yl)-phenyl]-amine]
Inhibitory efficacy [2, 21]: 0.2224 and 0.1702
Inhibitory efficacy [2, 22]: 0.2939 and 0.3309
Inhibitory efficacy [2, 23]: 0.2956 and 0.3275
Inhibitory efficacy [2, 24]: 0.2156 and 0.1736
inhibition at 2 µM [2, 25]: 18.8%
inhibition at 4 µM [2, 26]: 29.1%
inhibition at 8 µM [2, 27]: 22.2%
inhibition at 16 µM [2, 28]: 20.2%
Inhibitory efficacy [3, 20]: 0.1948 and 0.1895
Inhibitory efficacy [3, 22]: 0.1258 and 0.07143
inhibition at 1 µM ([3]; Homo sapiens, NCI-H460, read-out: Inhibitory efficacy, H460 cells, 1uM, given as fraction, Repeat 1-3): 17.3%
inhibition at 4 µM [3, 29]: 9.76%
Inhibitory efficacy [4, 24]: 0.06216 and 0.05712
inhibition at 16 µM [4, 30]: 8.81%
